This is an account of results in patent US10463594B2, “Cosmetic composition” (AJINOMOTO CO., INC., priority 2012, dated 2019).

Data set [1] has as its system hair. Briefly: Measurement of swelling degree of hair. Conditions: 100×(D1−D0)/D0 of hair diameter. On the procedure:
Hair was immobilized in a concave part of a glass slide for biochemical count having a depth of the concave part of 200 μm (manufactured by NIPPON Genetics Co, Ltd.), a cover glass was placed on the glass slide to cover the concave part, the diameter of the hair was measured 10-14 times, and the mean thereof was calculated (D0). Thereafter, a sample was injected from the clearance between the cover glass and the glass slide, and left standing for 3 min or 5 min. The diameter of the hair was measured 10-14 times, and the mean was calculated (D1).
As the sample, ion exchange water, phosphate buffer (pH 6.2), protein-glutaminase solution (6.2 mg/mL, pH 6.2) and 1% aqueous ammonia (pH 11.8) were used. The swelling degree was calculated from the measured diameters of the hair (D0 and D1) according to the following formula. swelling degree (%)=100×(D1−D0)/D0

Data set [2] has as its system hair. Briefly: Observation of hair damage (microscopic images ×400). The settings on record: 3 min after injection of sample. How it is done:
In the test of the above-mentioned 1, the condition of the hair 3 min after injection of ion exchange water, protein-glutaminase solution, or 1% aqueous ammonia was observed.

Data set [3] concerns perm-treated hair. Nature of the data set: Quantification of free ammonia produced by reaction of protein-glutaminase with perm-treated hair. The format is biochemical, human. Conditions: 37° C., 1 hr. On the procedure:
Hair of Japanese women in their 20's was perm-treated and used as an experiment sample. The perm treatment included 1) immersing the hair in first perm liquid at 33° C. for 15 min and rinsing the first liquid with tap water at 35-40° C., and 2) immersing the hair in second perm liquid at 33° C. for 15 min and sufficiently rinsing same with tap water at 35-40° C. The continuous operation of 1) and 2) was repeated 4 times, and the hair was washed with 15% sodium laureth sulfate (EMAL E27C; Kao Corporation) and sufficiently rinsed with tap water at 35-40° C. The hair was immersed in a buffer, and treated with occasional stirring at room temperature for 10 min. The hair was combed out, hung while avoiding overlapped hair, and dried in a thermo-hygrostat room (23° C., 40% R.H.).
Using an Ammonia test kit (manufactured by Wako Pure Chemical Industries, Ltd.), the amount of free ammonia produced by reaction of protein-glutaminase with the above-mentioned perm-treated hair was quantified.
The protein-glutaminase solution (2 ml) at a concentration shown in Table 4 was added to a bundle of the above-mentioned perm-treated hair (0.25 g), and the amount of ammonia in a sample after reaction at 37° C. for 1 hr was measured. The amount of ammonia produced was shown as a value after subtraction of the amount of ammonia produced without addition of protein-glutaminase (Comparative Example 4).

Data set [4] relates to 3D cultured human skin model: TESTSKIN LSE-high. Nature of the data set: Permeability of FITC-labeled Gly-Gly-Gly to artificial cultured skin. The data set is classed as cell-based. The settings on record: protein-glutaminase solution 4 mg/ml, 100 μl, 37° C. 30 min before peptide; measured after 2, 5, 20 hr; versus phosphate buffer (−). How it is done: Using glycylglycylglycine (hereinafter indicated as “Gly-Gly-Gly”) (manufactured by PEPTIDE INSTITUTE, INC.) as a peptide to be evaluated for skin permeability, the permeability of Gly-Gly-Gly to commercially available artificial cultured skin (3D cultured human skin model: TESTSKIN LSE-high, manufactured by Toyobo Co., Ltd.) was evaluated. Gly-Gly-Gly was labeled with fluorescein by using fluorescein isothiocyanate (FITC-I, manufactured by Chemical-Dojin Co., Ltd.) to enable highly sensitive detection.
The cultured skin is cultured on a polycarbonate membrane on the bottom of a transwell, and set on a 6-well assay plate. […] The permeability was evaluated by measuring the amount of FITC-labeled Gly-Gly-Gly that permeated the cultured skin to move into phosphate buffer (−).
First, a protein-glutaminase solution (4 mg/ml, 100 μl) was added to the top of the cultured skin and incubated at 37° C. for 30 min, after which a FITC-labeled Gly-Gly-Gly sample (100 μl) was added to the top of the cultured skin. After 2, 5, and 20 hr, the amount of FITC-labeled Gly-Gly-Gly that permeated the cultured skin and moved into phosphate buffer (−) was measured. […] The fluorescence intensity was measured under the conditions of exciting wavelength 492 nm and fluorescence wavelength 520 nm. The fluorescence intensity was measured using platereader SpectraMaxM2 (manufactured by Molecular Devices, LLC.).

As to `N` [Comparative Example 3, 1% aqueous ammonia], the “swelling degree (%) after 3 min” value in data set [1] (hair left standing in sample for 3 min) came to 11.1%. Also, the “swelling degree (%) after 5 min” value in data set [1] (hair left standing in sample for 5 min) stood at 11.3%. Also, the “condition of the hair (hair damage)” value in data set [2] is “cuticles on the hair surface were lifted”.

B1: protein-glutaminase: protein-glutaminase of Chryseobacterium proteolyticum, secretory-expressed in Corynebacterium glutamicum, activated by protease, purified, dissolved in phosphate buffer (protein, listed as Chryseobacterium proteolyticum)
chain: LASVIPDVATLNSLFNQIKNQSCGTSTASSPCITFRYPVDGCYARAHKMRQILMNNGYDCEKQFVYGNLKASTGTCCVAWSYHVAILVSYKNASGVTEKRIIDPSLFSSGPVTDTAWRNACVNTSCGSASVSSYANTAGNVYYRSPSNSYLYDNNLINTNCVLTKFSLLSGCSPSPAPDVSSCGF
Take B1: in data set [3], the “concentration of protein-glutaminase solution at which it reacted with perm-treated hair” value is on record as “not less than 0.01 mg/ml”. Further, in data set [4], the “permeability of FITC-labeled Gly-Gly-Gly through cultured skin (fluorescence intensity)” value is “improved permeability of peptide”.
